Data: article PMC10732257 (Oncotarget, 2023)

Experiments:
Assay in all cases: CDK family off-target kinase activity (Eurofins)
Type in all cases: biochemical
[1] = molecular target: T1, Cdc7/cyclinB1 (Homo sapiens, UniProt O00311)
T1 construct: purchased Eurofins Pharma Discovery Services UK Ltd
Protocol: (§1) GFH009 inhibition activity against the CDK9/cyclin T1 complex as well as off-target CDK family reactivity were assayed by Eurofins Pharma Discovery Services UK Ltd., (Dundee, UK). Determination of off-target inhibition of other kinases was conducted by DiscoverX LeadHunter Discovery Services (Freemont, CA, USA.) GFH009 reactivity to GPCR family members was assayed by Wuxi AppTech (Shanghai, China).
(§2) The pharmacodynamic and mechanistic foundation for the
(§3) CDK9 inhibitor for the treatment of hematologic malignancies
(§4) Supplementary Table 1: Inhibitory action of GFH009 on other CDK family members
(§5) Various CDK/ Remaining enzymatic activity (%) after
(§6) cognate cyclin pairs tested exposure to GFH009 at a concentration of Selectivity vs. CDK9
(§7) (also on this page, place not known: www.oncotarget.com Oncotarget, Materials Supplementary)
(§8) (1 picture or pasted object on this page, not shown here)

[2] = molecular target: T2, CDK7/cyclin H/MAT1 (Homo sapiens, UniProt P50613)
T2 construct: purchased Eurofins Pharma Discovery Services UK Ltd
Protocol: as §1, §2, §3, §4, §5, §6, §7, §8

[3] = molecular target: T3, CDK14/cyclin Y (Homo sapiens, UniProt O94921)
T3 construct: purchased Eurofins Pharma Discovery Services UK Ltd
T3 sequence (O94921 whole entry): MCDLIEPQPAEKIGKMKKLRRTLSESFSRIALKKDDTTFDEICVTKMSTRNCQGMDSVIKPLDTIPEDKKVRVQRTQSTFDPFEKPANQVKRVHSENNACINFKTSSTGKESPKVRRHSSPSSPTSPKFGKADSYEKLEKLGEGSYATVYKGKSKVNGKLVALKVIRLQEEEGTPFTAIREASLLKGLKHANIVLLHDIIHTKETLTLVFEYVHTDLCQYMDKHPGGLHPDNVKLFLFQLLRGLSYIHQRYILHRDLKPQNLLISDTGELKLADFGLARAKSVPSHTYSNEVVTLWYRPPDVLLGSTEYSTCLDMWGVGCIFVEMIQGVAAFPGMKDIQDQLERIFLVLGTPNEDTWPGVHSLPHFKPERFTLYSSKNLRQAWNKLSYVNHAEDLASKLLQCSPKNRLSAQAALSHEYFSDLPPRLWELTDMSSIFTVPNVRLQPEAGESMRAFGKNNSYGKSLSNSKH
T3 sequence (Q8ND76 whole entry partner): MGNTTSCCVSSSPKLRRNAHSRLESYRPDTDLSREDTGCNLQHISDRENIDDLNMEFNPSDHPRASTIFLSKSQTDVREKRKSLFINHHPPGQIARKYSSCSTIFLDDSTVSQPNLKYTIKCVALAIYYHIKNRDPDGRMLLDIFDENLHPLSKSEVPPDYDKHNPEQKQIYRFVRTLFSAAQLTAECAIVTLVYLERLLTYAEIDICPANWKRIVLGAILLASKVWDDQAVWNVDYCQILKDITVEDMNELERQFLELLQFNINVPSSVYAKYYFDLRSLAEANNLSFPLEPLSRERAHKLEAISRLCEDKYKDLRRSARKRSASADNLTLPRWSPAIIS
Protocol: as §1, §2, §3, §4, §5, §6, §7, §8

[4] = molecular target: T4, CDK18/cyclin Y (Homo sapiens, UniProt Q07002)
T4 construct: purchased Eurofins Pharma Discovery Services UK Ltd
T4 sequence (Q07002 whole entry): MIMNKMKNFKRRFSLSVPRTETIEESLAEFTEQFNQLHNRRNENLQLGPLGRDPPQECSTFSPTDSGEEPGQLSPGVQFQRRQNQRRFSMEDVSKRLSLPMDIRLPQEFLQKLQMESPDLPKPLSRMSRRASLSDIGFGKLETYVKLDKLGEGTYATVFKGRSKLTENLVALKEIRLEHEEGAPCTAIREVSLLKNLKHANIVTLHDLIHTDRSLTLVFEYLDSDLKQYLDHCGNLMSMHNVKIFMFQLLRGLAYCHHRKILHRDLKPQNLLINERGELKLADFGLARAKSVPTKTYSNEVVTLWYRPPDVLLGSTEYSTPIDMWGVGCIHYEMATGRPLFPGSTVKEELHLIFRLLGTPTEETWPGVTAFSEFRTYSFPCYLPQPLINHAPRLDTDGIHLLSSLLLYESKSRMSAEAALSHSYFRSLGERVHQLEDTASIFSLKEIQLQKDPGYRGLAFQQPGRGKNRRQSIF
T4 sequence (Q8ND76 whole entry partner): as the sequence (Q8ND76 whole entry partner) above
Protocol: as §1, §2, §3, §4, §5, §6, §7, §8

[5] = molecular target: T5, CDK5/p35 (Homo sapiens, UniProt Q00535)
T5 construct: purchased Eurofins Pharma Discovery Services UK Ltd
T5 sequence (Q00535 whole entry): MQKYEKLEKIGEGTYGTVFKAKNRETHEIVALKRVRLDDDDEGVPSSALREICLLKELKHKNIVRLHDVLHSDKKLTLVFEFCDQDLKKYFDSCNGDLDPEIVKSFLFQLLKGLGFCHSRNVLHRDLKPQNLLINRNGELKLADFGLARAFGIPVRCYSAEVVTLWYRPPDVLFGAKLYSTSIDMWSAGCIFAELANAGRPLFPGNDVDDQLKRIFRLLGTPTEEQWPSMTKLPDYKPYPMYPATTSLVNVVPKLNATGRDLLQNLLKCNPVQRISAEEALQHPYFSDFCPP
T5 sequence (Q15078 2-307 partner limits assumed): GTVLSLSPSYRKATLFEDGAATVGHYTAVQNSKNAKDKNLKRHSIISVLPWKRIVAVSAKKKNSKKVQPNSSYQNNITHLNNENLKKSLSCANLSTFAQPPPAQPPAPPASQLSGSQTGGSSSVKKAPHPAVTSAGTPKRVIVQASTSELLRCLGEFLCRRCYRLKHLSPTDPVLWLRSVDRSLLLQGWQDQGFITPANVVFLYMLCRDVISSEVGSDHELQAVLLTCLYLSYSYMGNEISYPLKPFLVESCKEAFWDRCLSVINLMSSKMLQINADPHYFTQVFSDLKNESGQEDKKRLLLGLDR
Protocol: as §1, §2, §3, §4, §5, §6, §7, §8

[6] = molecular target: T6, CDK16/cyclin Y (Homo sapiens, UniProt Q00536)
T6 construct: purchased Eurofins Pharma Discovery Services UK Ltd
T6 sequence (Q00536 whole entry): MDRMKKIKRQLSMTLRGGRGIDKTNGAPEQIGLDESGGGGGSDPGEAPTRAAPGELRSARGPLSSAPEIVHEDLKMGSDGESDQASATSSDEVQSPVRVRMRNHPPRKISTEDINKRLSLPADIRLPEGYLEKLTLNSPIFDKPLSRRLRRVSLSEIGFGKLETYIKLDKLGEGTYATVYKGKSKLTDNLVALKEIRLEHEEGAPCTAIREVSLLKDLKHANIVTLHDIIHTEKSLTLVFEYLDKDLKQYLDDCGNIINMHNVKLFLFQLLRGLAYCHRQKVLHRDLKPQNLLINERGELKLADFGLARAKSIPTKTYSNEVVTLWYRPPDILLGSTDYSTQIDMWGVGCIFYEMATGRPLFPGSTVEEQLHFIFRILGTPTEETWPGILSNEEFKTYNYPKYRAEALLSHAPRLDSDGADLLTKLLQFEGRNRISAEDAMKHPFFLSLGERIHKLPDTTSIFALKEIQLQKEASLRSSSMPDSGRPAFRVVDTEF
T6 sequence (Q8ND76 whole entry partner): as the sequence (Q8ND76 whole entry partner) above
Protocol: as §1, §2, §3, §4, §5, §6, §7, §8

[7] = molecular target: T7, CDK2/cyclin A (Homo sapiens, UniProt P24941)
T7 construct: purchased Eurofins Pharma Discovery Services UK Ltd
Protocol: as §1, §2, §3, §4, §5, §6, §7, §8

[8] = molecular target: T8, CDK17/cyclin Y (Homo sapiens, UniProt Q00537)
T8 construct: purchased Eurofins Pharma Discovery Services UK Ltd
T8 sequence (Q00537 whole entry): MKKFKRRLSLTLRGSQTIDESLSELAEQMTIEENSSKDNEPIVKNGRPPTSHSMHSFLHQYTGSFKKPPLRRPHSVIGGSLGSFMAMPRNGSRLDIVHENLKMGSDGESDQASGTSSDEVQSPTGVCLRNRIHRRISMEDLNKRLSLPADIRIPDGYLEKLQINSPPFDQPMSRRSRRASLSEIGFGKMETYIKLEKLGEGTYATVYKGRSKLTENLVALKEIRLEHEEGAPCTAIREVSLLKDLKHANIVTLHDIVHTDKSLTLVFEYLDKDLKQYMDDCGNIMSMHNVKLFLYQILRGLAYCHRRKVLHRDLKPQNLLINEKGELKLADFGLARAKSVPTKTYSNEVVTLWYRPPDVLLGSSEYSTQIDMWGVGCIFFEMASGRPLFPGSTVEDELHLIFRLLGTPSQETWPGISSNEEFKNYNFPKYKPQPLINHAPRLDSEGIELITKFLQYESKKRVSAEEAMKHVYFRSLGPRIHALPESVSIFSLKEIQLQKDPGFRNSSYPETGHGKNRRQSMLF
T8 sequence (Q8ND76 whole entry partner): as the sequence (Q8ND76 whole entry partner) above
Protocol: as §1, §2, §3, §4, §5, §6, §7, §8

[9] = molecular target: T9, CDK6/cyclin D3 (Homo sapiens, UniProt Q00534)
T9 construct: purchased Eurofins Pharma Discovery Services UK Ltd
T9 sequence (Q00534 whole entry): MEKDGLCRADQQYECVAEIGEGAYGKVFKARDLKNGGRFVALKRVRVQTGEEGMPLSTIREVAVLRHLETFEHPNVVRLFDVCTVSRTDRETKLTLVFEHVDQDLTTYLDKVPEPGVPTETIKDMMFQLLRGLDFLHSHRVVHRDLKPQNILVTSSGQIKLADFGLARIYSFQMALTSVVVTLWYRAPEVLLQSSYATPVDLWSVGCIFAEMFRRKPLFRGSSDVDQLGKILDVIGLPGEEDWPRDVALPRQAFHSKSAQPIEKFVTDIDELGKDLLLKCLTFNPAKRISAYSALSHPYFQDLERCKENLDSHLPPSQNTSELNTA
T9 sequence (P30281 whole entry partner): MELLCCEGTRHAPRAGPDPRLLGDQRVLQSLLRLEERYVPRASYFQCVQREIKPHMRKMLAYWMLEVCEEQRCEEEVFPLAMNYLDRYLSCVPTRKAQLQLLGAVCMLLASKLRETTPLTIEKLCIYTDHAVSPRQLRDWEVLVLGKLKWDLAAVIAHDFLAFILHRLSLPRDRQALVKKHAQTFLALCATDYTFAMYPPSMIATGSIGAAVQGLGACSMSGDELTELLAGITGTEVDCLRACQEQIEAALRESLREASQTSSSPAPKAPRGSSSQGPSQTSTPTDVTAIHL
Protocol: as §1, §2, §3, §4, §5, §6, §7, §8

[10] = molecular target: T10, CDK5/p25 (Homo sapiens, UniProt Q00535)
T10 construct: purchased Eurofins Pharma Discovery Services UK Ltd
T10 sequence (Q00535 whole entry): as the sequence (Q00535 whole entry) above
T10 sequence (Q15078 99-307 partner limits assumed): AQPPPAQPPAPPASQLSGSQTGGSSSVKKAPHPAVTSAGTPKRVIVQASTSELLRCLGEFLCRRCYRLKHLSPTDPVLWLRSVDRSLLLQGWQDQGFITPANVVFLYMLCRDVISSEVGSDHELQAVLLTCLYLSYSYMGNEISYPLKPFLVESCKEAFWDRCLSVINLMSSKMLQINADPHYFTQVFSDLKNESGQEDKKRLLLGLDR
Protocol: as §1, §2, §3, §4, §5, §6, §7, §8

[11] = molecular target: T11, CDK2/cyclin E (Homo sapiens, UniProt P24941)
T11 construct: purchased Eurofins Pharma Discovery Services UK Ltd
Protocol: as §1, §2, §3, §4, §5, §6, §7, §8

T1 sequence (O00311 whole entry): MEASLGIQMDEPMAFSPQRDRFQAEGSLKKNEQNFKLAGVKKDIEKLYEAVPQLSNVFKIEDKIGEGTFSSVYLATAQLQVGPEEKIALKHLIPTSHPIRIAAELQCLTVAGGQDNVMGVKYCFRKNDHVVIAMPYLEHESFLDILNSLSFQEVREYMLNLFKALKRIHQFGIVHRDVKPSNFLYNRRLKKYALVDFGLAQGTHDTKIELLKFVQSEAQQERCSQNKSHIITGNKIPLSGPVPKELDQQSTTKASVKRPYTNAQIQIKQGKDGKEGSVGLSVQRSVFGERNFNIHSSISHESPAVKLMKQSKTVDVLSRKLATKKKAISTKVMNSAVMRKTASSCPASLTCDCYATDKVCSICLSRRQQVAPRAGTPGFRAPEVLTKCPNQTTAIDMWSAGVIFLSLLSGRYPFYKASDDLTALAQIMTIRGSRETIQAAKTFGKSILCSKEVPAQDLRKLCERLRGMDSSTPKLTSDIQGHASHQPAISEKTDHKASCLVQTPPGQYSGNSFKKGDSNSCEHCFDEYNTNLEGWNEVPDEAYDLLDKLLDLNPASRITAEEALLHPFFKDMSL

COC[C@@H](C)NC1CCC(Nc2cc(-c3csc(NCC4(C#N)CCOCC4)n3)c(Cl)cn2)CC1 (stereo partly drawn) [GFH009]
Selectivity vs. CDK9 [1]: > 100 | Remaining enzymatic activity (%) after exposure to GFH009 ([1]; 1 µM): 75% | Remaining enzymatic activity (%) after exposure to GFH009 ([1]; 10 µM): 47% | Selectivity vs. CDK9 [2]: > 100 | Remaining enzymatic activity (%) after exposure to GFH009 ([2]; 1 µM): 67% | Remaining enzymatic activity (%) after exposure to GFH009 ([2]; 10 µM): 19% | Selectivity vs. CDK9 [3]: > 100 | Remaining enzymatic activity (%) after exposure to GFH009 ([3]; 1 µM): 70% | Remaining enzymatic activity (%) after exposure to GFH009 ([3]; 10 µM): 39% | Selectivity vs. CDK9 [4]: > 100 | Remaining enzymatic activity (%) after exposure to GFH009 ([4]; 1 µM): 53% | Remaining enzymatic activity (%) after exposure to GFH009 ([4]; 10 µM): 12% | Selectivity vs. CDK9 [5]: > 100 | Remaining enzymatic activity (%) after exposure to GFH009 ([5]; 1 µM): 66% | Remaining enzymatic activity (%) after exposure to GFH009 ([5]; 10 µM): 43% | Selectivity vs. CDK9 [6]: < 100 | Remaining enzymatic activity (%) after exposure to GFH009 ([6]; 1 µM): 23% | Remaining enzymatic activity (%) after exposure to GFH009 ([6]; 10 µM): 5% | Selectivity vs. CDK9 [7]: > 1000 | Remaining enzymatic activity (%) after exposure to GFH009 ([7]; 1 µM): 80% | Remaining enzymatic activity (%) after exposure to GFH009 ([7]; 10 µM): 51% | Selectivity vs. CDK9 [8]: < 100 | Remaining enzymatic activity (%) after exposure to GFH009 ([8]; 1 µM): 30% | Remaining enzymatic activity (%) after exposure to GFH009 ([8]; 10 µM): 7% | Selectivity vs. CDK9 [9]: > 1000 | Remaining enzymatic activity (%) after exposure to GFH009 ([9]; 1 µM): 85% | Remaining enzymatic activity (%) after exposure to GFH009 ([9]; 10 µM): 58% | Selectivity vs. CDK9 [10]: > 100 | Remaining enzymatic activity (%) after exposure to GFH009 ([10]; 1 µM): 79% | Remaining enzymatic activity (%) after exposure to GFH009 ([10]; 10 µM): 43% | Selectivity vs. CDK9 [11]: > 100 | Remaining enzymatic activity (%) after exposure to GFH009 ([11]; 1 µM): 63% | Remaining enzymatic activity (%) after exposure to GFH009 ([11]; 10 µM): 27%
